Laboratory results as given in patent US6831075B2, “Heterocyclic substituted pyrazolones” (Cephalon, Inc., priority 1999, dated 2004).

Experiments:
Format in all cases: biochemical
baculoviral GST-MLK2KDLZ = biological target: T1, baculoviral GST-MLK2KDLZ (Homo sapiens, UniProt Q02779); experiment: Mixed Lineage Kinase-2 inhibition assay (Millipore Multiscreen plate, 32P); conditions: 1 uM compound, 100 μM ATP
T1 construct: 3 μg/ml of baculoviral GST-MLK2KDLZ; GST (N); host or cells: baculovirus expression system
Method: Inhibition of Mixed Lineage Kinase-2 Activity
Assays were performed using the Millipore Multiscreen plate format as described for MLK1. Each 50-μl assay mixture contained 20 mM Hepes, pH 7, 1 mM EGTA, 10 mM MgCl2, 1 mM DTT, 25 mM β-glycerophosphate, 100 μM ATP, 0.25 μCi [γ-^32P]ATP, 0.1% BSA, 500 μg/ml myelin basic protein (UBI #13-104), 2% DMSO, various concentrations of test compound, and 3 μg/ml of baculoviral GST-MLK2KDLZ. Samples were incubated for 15 min. at 37° C. The reaction was stopped by adding ice cold 50% TCA and the proteins were allowed to precipitate for 30 min at 4° C. The plates were then washed with ice cold 25% TCA Supermix scintillation cocktail was added, and the plates were allowed to equilibrate for 1-2 hours prior to counting.

baculoviral GST-MLK1KD = biological target: T2, baculoviral GST-MLK1KD (Homo sapiens, UniProt P80192); experiment: Mixed Lineage Kinase-1 inhibition assay (Millipore Multiscreen TCA in-plate, 32P); conditions: for MLK-1 Kinase % inhibition @ 1 uM: 1 uM compound, 60 μM ATP
T2 construct: 1 μg/ml of baculoviral GST-MLK1KD; GST (N); host or cells: baculovirus expression system
Method: Inhibition of Mixed Lineage Kinase-1 Activity
The kinase activity of MLK1 was assessed using the Millipore Multiscreen TCA “in-plate” format as described for protein kinase C (Pitt & Lee, J. Biomol. Screening, 1: 47-51, 1996). Briefly, each 50-μl assay mixture contained 20 mM Hepes, pH 7.0, 1 mM EGTA, 10 mM MgCl2, 1 mM DTT, 25 mM β-glycerophosphate, 60 μM ATP, 0.25 μCi [γ-^32P]ATP, 0.1% BSA, 500 μg/ml myelin basic protein (UBI #13-104), 2% DMSO, 1 μM of test compound, and 1 μg/ml of baculoviral GST-MLK1KD. Samples were incubated for 15 min at 37° C. The reaction was stopped by adding ice cold 50% TCA and the protein were allowed to precipitate for 30 min at 4° C. The plates were then washed with ice cold 25% TCA. Supermix scintillation cocktail was added, and the plates were allowed to equilibrate for 1-2 hours prior to counting using the Wallac MicroBeta 1450 PLUS scintillation counter.

[1] = biological target: T3, baculovirus-expressed human trkA cytoplasmic domain (Homo sapiens, UniProt P04629); experiment: trkA tyrosine kinase inhibition assay (ELISA-based); conditions: 1 uM compound; 40 μM ATP
T3 construct: baculovirus-expressed human trkA cytoplasmic domain; host or cells: baculovirus expression system
Method: Inhibition of trkA Tyrosine Kinase Activity
Selected heterocyclic substituted pyrazolones were tested for their ability to inhibit the kinase activity of baculovirus-expressed human trkA cytoplasmic domain using an ELISA-based assay as previously described (Angeles et al., Anal. Biochem. 236: 49-55, 1996). Briefly, a 96-well microtiter plate was coated with substrate solution (recombinant human phospholipase C-γl/glutathione S-transferase fusion protein (Rotin et al., EMBO J., 11: 559-567, 1992). Inhibition studies were performed in 100 μl assay mixtures containing 50 mM Hepes, pH 7.4, 40 μM ATP, 10 mM MnCl2, 0.1% BSA, 2% DMSO, and various concentrations of inhibitor. The reaction was initiated by addition of trkA kinase and allowed to proceed for 15 minutes at 37° C. An antibody to phosphotyrosine (UBI) was then added, followed by a secondary enzyme-conjugated antibody, alkaline phosphatase-labelled goat anti-mouse IgG (Bio-Rad). The activity of the bound enzyme was measured via an amplified detection system (Gibco-BRL). Inhibition data were analyzed using the sigmoidal dose-response (variable slope) equation in GraphPad Prism.

T3 sequence (P04629 440-796 limits assumed): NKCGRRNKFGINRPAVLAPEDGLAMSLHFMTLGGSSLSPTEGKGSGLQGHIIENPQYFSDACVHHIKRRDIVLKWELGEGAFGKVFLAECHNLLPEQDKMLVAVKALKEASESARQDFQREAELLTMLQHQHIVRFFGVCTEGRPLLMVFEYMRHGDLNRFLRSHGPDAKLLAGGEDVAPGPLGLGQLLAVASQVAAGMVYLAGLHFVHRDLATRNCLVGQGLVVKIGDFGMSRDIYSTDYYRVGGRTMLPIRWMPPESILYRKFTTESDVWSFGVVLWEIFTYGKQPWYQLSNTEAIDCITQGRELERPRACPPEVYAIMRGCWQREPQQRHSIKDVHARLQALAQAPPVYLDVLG
T1 sequence (Q02779 98-440 limits assumed): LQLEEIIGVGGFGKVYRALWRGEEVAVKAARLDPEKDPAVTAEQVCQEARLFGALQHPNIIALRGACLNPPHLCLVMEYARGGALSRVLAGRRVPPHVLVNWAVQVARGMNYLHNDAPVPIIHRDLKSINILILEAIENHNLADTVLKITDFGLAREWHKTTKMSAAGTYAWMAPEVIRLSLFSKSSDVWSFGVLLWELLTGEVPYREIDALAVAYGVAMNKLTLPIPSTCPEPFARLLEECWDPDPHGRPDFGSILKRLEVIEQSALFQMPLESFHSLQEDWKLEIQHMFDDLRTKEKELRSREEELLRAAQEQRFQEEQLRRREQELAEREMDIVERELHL
T2 sequence (P80192 144-412 limits assumed): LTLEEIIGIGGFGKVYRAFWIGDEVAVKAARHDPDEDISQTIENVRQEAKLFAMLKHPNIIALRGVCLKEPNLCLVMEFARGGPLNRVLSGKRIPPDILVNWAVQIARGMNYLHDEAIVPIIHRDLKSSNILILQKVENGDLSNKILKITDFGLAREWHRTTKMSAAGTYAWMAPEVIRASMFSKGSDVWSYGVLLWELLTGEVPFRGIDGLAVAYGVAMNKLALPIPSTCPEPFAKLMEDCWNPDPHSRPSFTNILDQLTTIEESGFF

Structure (SMILES) | inhibition at 1 µM (baculoviral GST-MLK2KDLZ; read-out: MLK-2 Kinase % inhibition @ 1 uM) [%] | inhibition at 1 µM (baculoviral GST-MLK1KD; read-out: MLK-1 Kinase % inhibition @ 1 uM) [%] | inhibition at 1 µM [1] [%] | MLK-2 Kinase % inhibition @ 1 uM (baculoviral GST-MLK2KDLZ) [%] | MLK-1 Kinase % inhibition @ 1 uM (baculoviral GST-MLK1KD) [%] | trkA % inhibition @ 1 uM [1] [%]
O=C1NN=C(c2nccs2)C1=Cc1c[nH]c2ccccc12 [Compound 25, 4-(indol-3-ylmethylene)-3-(1,3-thiazol-2-yl)-2-pyrazolin-5-one] | -4 | 11 | 65 |  |  | 
O=C1NN=C(c2ccoc2)C1=Cc1c[nH]c2ccc(OCc3ccccc3)cc12 [Compound 21] |  |  |  | −13 | 4 | 56
CC(C)Cn1cc(C=C2C(=O)NN=C2c2nccs2)c2ccccc21 [Compound 73] |  |  |  | 12 | −1 | 8
N#CCCn1cc(C=C2C(=O)NN=C2c2ccoc2)c2ccccc21 [Compound 65] |  |  |  | −3 | 10 | 22
CCOC(=O)CCc1c(C(=O)OCC)[nH]c(C=C2C(=O)NN=C2c2ccoc2)c1CC(=O)OCC [Compound 7] |  |  |  | −12 | 9 | 33
O=C1NN=C(c2ccoc2)C1=Cc1ccc[nH]1 [Compound 12] |  |  |  | −7 | 27 | 44
Cc1cc(C)c(C=C2C(=O)NN=C2c2ccn(C)c2)[nH]1 [Compound 23] |  |  |  | −6 | 30 | 26
Cc1oc(-c2ccc(Cl)cc2)cc1C1=NNC(=O)C1=Cc1c[nH]c2ccccc12 [Compound 42] |  |  |  | −10 | −9 | 29
Cc1c(I)[nH]c(C=C2C(=O)NN=C2c2ccoc2)c1I [Compound 6] |  |  |  | 6 | 25 | 31
O=C1NN=C(c2ccoc2)C1=Cc1c[nH]c2ccccc12 [Compound 9] |  |  |  | 15 | 22 | 41
Cc1cc(C)c(C=C2C(=O)NN=C2c2csc3ccccc23)[nH]1 [Compound 39] |  |  |  | −7 | 4 | 31
N#CCCn1cc(C=C2C(=O)NN=C2c2cccs2)c2ccccc21 [Compound 66] |  |  |  | 5 | 11 | 32
Cn1cc(C=C2C(=O)NN=C2c2cccs2)c2ccccc21 [Compound 63] |  |  |  | 1 | 14 | 60
Cc1cc(C)c(C=C2C(=O)NN=C2c2cc(-c3ccc(Cl)cc3)oc2C)[nH]1 [Compound 41] |  |  |  | −15 | 13 | 17
Cc1ccc2c(C=C3C(=O)NN=C3c3ccco3)c[nH]c2c1 [Compound 46] |  |  |  | 2 | 13 | 29
